Data from the CheMixHub viscosity set.

Assay: xn = mol fraction of the nth substance listed

CC(C)C#N + c1ccccc1
viscosity [mPa·s], 101 kPa
Details | x2 = 0.1007 | x2 = 0.2057 | x2 = 0.307 | x2 = 0.3954 | x2 = 0.4991 | x2 = 0.5899 | x2 = 0.6925 | x2 = 0.7959 | x2 = 0.8965
303.15 K | 0.459 | 0.458 | 0.46 | 0.465 | 0.472 | 0.483 | 0.497 | 0.516 | 0.539
308.15 K | 0.43 | 0.432 | 0.432 | 0.434 | 0.442 | 0.451 | 0.462 | 0.481 | 0.498

CN1CCC[C@H]1c1cccnc1 + O
viscosity [mPa·s]
Details | 298.15 K | 303.15 K | 308.15 K | 318.05 K | 323.15 K
100 kPa, x1 = 0.006 | – | 1.33 | – | 1.15 | –
100 kPa, x1 = 0.1 | – | 7.1 | – | 4.1 | –
100 kPa, x1 = 0.3 | – | 14.2 | – | 6.2 | –
100 kPa, x1 = 0.4 | – | 17.3 | – | 5.8 | –
100 kPa, x1 = 0.5 | – | 11.1 | – | 5 | –
100 kPa, x1 = 0.6 | – | 5.8 | – | 3.1 | –
100 kPa, x1 = 0.7 | – | 4.5 | – | 2.8 | –
100 kPa, x1 = 0.8 | – | 4.8 | – | 3.5 | –
100 kPa, x1 = 0.9 | – | 2 | – | 1.3 | –
101 kPa, x1 = 0.1202 | 11.12 | – | 6.629 | – | 3.436
101 kPa, x1 = 0.1977 | 19.96 | – | 10.4 | – | 4.771
101 kPa, x1 = 0.2424 | 23.83 | – | 12.08 | – | 5.382
101 kPa, x1 = 0.2592 | 25.19 | – | 12.24 | – | 5.493
101 kPa, x1 = 0.2808 | 24.43 | – | 12.19 | – | 5.403
101 kPa, x1 = 0.3047 | 23.6 | – | 12.1 | – | 5.304
101 kPa, x1 = 0.3692 | 21.03 | – | 11.15 | – | 5.146
101 kPa, x1 = 0.4852 | 15.84 | – | 8.817 | – | 4.426
101 kPa, x1 = 0.6052 | 11.43 | – | 6.572 | – | 3.624
101 kPa, x1 = 0.7285 | 7.954 | – | 4.832 | – | 2.834
101 kPa, x1 = 0.8635 | 5.014 | – | 3.811 | – | 2.486

NC=O + CC(C)CO
308 K, 101 kPa
Details | viscosity [mPa·s]
x1 = 0.1092 | 2.344
x1 = 0.2053 | 2.444
x1 = 0.3677 | 2.574
x1 = 0.4992 | 2.682
x1 = 0.6079 | 2.757
x1 = 0.6993 | 2.788
x1 = 0.7772 | 2.782
x1 = 0.844 | 2.744
x1 = 0.9029 | 2.701

OCCCl + CCCCCO
viscosity [mPa·s], 101.33 kPa
Details | x1 = 0.0959 | x1 = 0.194 | x1 = 0.2912 | x1 = 0.3946 | x1 = 0.4922 | x1 = 0.5939 | x1 = 0.6962 | x1 = 0.8018 | x1 = 0.8986
298.15 K | 3.401 | 3.282 | 3.2 | 3.138 | 3.088 | 3.045 | 3.02 | 2.98 | 2.92
303.15 K | 2.941 | 2.86 | 2.78 | 2.731 | 2.705 | 2.69 | 2.661 | 2.62 | 2.56
308.15 K | 2.58 | 2.5 | 2.441 | 2.401 | 2.384 | 2.378 | 2.34 | 2.323 | 2.25

NC=O + CCCCO
Details | viscosity [mPa·s]
293.15 K, 101 kPa, x1 = 0.1093 | 3.225
298.15 K, 100 kPa, x1 = 0.09212 | 2.58
298.15 K, 100 kPa, x1 = 0.1905 | 2.67
298.15 K, 100 kPa, x1 = 0.2439 | 2.76
298.15 K, 100 kPa, x1 = 0.2798 | 2.82
298.15 K, 100 kPa, x1 = 0.3484 | 2.96
298.15 K, 100 kPa, x1 = 0.4402 | 3.17
298.15 K, 100 kPa, x1 = 0.5809 | 3.46
298.15 K, 100 kPa, x1 = 0.6667 | 3.58
298.15 K, 100 kPa, x1 = 0.7277 | 3.65
298.15 K, 100 kPa, x1 = 0.7869 | 3.66
298.15 K, 100 kPa, x1 = 0.8345 | 3.64
298.15 K, 100 kPa, x1 = 0.8771 | 3.6
298.15 K, 100 kPa, x1 = 0.9257 | 3.53
298.15 K, 100 kPa, x1 = 0.9728 | 3.43

CCCCCCCCCCC + CCCCCCCCO
viscosity [mPa·s], 100 kPa
Details | x1 = 0.0994 | x1 = 0.2003 | x1 = 0.2994 | x1 = 0.3986 | x1 = 0.498 | x1 = 0.5983 | x1 = 0.6948 | x1 = 0.7982 | x1 = 0.899
293.15 K | 6.831 | 5.141 | 3.839 | 3.004 | 2.374 | 1.965 | 1.669 | 1.463 | 1.271
298.15 K | 5.749 | 4.369 | 3.31 | 2.622 | 2.109 | 1.77 | 1.542 | 1.349 | 1.164
303.15 K | 4.874 | 3.746 | 2.878 | 2.322 | 1.929 | 1.622 | 1.402 | 1.233 | 1.071
308.15 K | 4.161 | 3.23 | 2.519 | 2.063 | 1.725 | 1.473 | 1.281 | 1.132 | 0.987
313.15 K | 3.577 | 2.805 | 2.223 | 1.847 | 1.559 | 1.341 | 1.175 | 1.043 | 0.915
318.15 K | 3.091 | 2.455 | 1.978 | 1.67 | 1.413 | 1.224 | 1.079 | 0.963 | 0.848
323.15 K | 2.694 | 2.167 | 1.774 | 1.507 | 1.286 | 1.123 | 0.996 | 0.892 | 0.792

CCCCCCCCCCC + CCCCOCCCC
viscosity [mPa·s], 101 kPa
Details | x2 = 0.1096 | x2 = 0.2089 | x2 = 0.3153 | x2 = 0.4013 | x2 = 0.5046 | x2 = 0.6034 | x2 = 0.7073 | x2 = 0.8109 | x2 = 0.9181
298.15 K | 1.004 | 0.9429 | 0.889 | 0.8479 | 0.8073 | 0.7715 | 0.7333 | 0.7 | 0.6643
308.15 K | 0.8817 | 0.8306 | 0.7845 | 0.7501 | 0.7159 | 0.6891 | 0.6599 | 0.6356 | 0.6114
318.15 K | 0.7547 | 0.7179 | 0.6814 | 0.6523 | 0.624 | 0.5989 | 0.5761 | 0.5579 | 0.5355

NC=O + CCC(C)O
101 kPa
Details | viscosity [mPa·s]
293.15 K, x1 = 0.5093 | 4.025
318.15 K, x1 = 0.9024 | 2.175
